Experimental data taken from patent publication US20130225694A1, “COMPOSITIONS AND METHODS OF INHIBITING RETINAL DEGENERATION” (Oklahoma Medical Research Foundation, priority 2012, published 2013).
Read-outs that look alike come from different tables or passages of the source.

Assays:
RPE65 isomerohydrolase = molecular target: T1, RPE65 isomerohydrolase (Bos taurus, UniProt Q28175); assay: In vitro RPE65 isomerohydrolase assay with bovine RPE microsomes (Example 3); assay type: biochemical; conditions: for RPE65 inhibition compared with PBN: summary of Table 1
T1 construct: Bovine RPE microsomes were used as a source of the RPE65 protein; from tissue; host or cells: bovine RPE microsomes
Description: In this Example, the effect of several PBN analogs on RPE65 isomerohydrolase activity was investigated in an in vitro assay. The chemical structures of the PBN analogs utilized are described herein above. Bovine RPE microsomes were used as a source of the RPE65 protein and all-trans-[^3H] retinol was a substrate for the isomerohydrolase assay. The produced 11-cis-[^3H] retinol was quantified by normal phase HPLC with flow scintillation analyzer. The inhibition of isomerohydrolase activity was dependent on the PBN analog's concentration.
FIG. 9 also illustrates the calculation of IC50 values for the two difluoro-PBN analogs. IC50 values are the concentration of the inhibitor that inhibits 50% of the enzymatic activity. Therefore, the smaller the IC50 value, the better the drug.

Rat Retina = assay: Light-induced retinal degeneration in rats, systemic (IP) nitrone; ERG and ONL histology; conditions: for A-Wave value at 4 cd·sec/m^2 / B-Wave value at 4 cd·sec/m^2 / A-Wave value at 400 cd·sec/m^2 / B-Wave value at 400 cd·sec/m^2 / % Protection (A-Wave at 4 cd·sec/m^2) / % Protection (A-Wave at 400 cd·sec/m^2) / % Protection (B-Wave at 4 cd·sec/m^2) / % Protection (B-Wave at 400 cd·sec/m^2) / ONL Thickness (μm) Inferior retina / ONL Thickness (μm) Superior retina: 50 mg/kg IP 0.5 h before 2,700 lux 6 h; for A-Wave value at 4 cd·sec/m^2 / B-Wave value at 4 cd·sec/m^2: ERG flash 4.0 cd·sec/m^2 (mostly rod function); for A-Wave value at 400 cd·sec/m^2 / B-Wave value at 400 cd·sec/m^2: ERG flash 400.0 cd·sec/m^2 (rod and cone function); for % Protection (A-Wave at 4 cd·sec/m^2) / % Protection (A-Wave at 400 cd·sec/m^2) / % Protection (B-Wave at 4 cd·sec/m^2) / % Protection (B-Wave at 400 cd·sec/m^2) / % Protection (ONL, Inferior retina) / % Protection (ONL, Superior retina): NLD = 100, Saline LD = 0; for ONL Thickness (μm) Inferior retina / ONL Thickness (μm) Superior retina: histology; for protection of retinal function (ERG A- and B-wave) / protective effect on retinal photoreceptors compared with PBN: 50 mg/kg IP; for protection of retinal function (ERG A- and B-wave): FIGS. 11-12; for protective effect on retinal photoreceptors compared with PBN: ONL histology (FIGS. 14-16)
Description: Consistent with previous publications (1-2,5), a dose of 50 mg/kg PBN and S-PBN dissolved in saline was chosen for intraperitoneal injection in the rats in the treatment group. An equal volume of saline was injected into control rats.
A light-stress paradigm of 2,700 lux for 6 hours was used to test the effect of PBN at different time points before (0.5 hour, 3 hours, 6 hours, 12 hours, 16 hours, and 24 hours) or after (0.5 hour and 3 hours) light exposure. The effect of S-PBN was tested using the same dose and protocol of PBN at 0.5 hours before light exposure.
Electroretinography—After light exposure, rats were returned to their dim cyclic light (5-10 lux) environment for 7 days before ERG recordings were performed. Flash ERGs were recorded with the Diagnosys Espion E2 ERG System (Diagnosys, LLC, Lowell, Mass.). Rats were maintained in total darkness overnight and prepared for ERG recording under dim red light. They were anesthetized with ketamine (120 mg/kg body weight) and xylazine (6 mg/kg body weight) intramuscularly (IM). One drop of 10% (v/v) phenylephrine was applied to the cornea to dilate the pupil, and one drop of 0.5% (v/v) proparacaine HCl was applied for local anesthesia. Rats were kept on a heating pad at 37° C. during recordings. A gold electrode was placed on the cornea, a reference electrode was positioned in the mouth, and a ground electrode was placed on the foot; rats were then placed inside a Ganzfeld illuminating sphere. Responses were differentially amplified, averaged, and stored. For the assessment of rod photoreceptor function (scotopic ERG), five strobe flash stimuli were presented at flash intensities at −2.3, −1.3, 0.7, and 2.7 log cd·s/m^2. The amplitude of the a-wave was measured from the pre-stimulus baseline to the a-wave trough. The amplitude of the b-wave was measured from the trough of the a-wave to the peak of the b-wave. For the evaluation of cone function (photopic ERG), a strobe flash stimulus (3.3 log cd·s/m^2) was presented to dilated, light-adapted (5 minutes at 1.7 log cd·s/m^2) rats. The amplitude of the cone b-wave was measured from the trough of the a-wave to the peak of the b-wave.
Histology—After ERG recordings, rats were killed by carbon dioxide asphyxiation for light microscopic evaluation of retinal structure. Immediately after death, eyes were excised, placed in fixative (4% (w/v) paraformaldehyde, 2% (v/v) trichloroacetic acid, 20% (v/v) isopropyl alcohol, 2% (v/v) zinc chloride, and 72% (v/v) distilled water), and embedded in paraffin. Sections of 5 μm were cut along the vertical meridian through the optic nerve and stained with hematoxylin and eosin (H&E).
The PBN derivatives were injected intraperitoneally (IP) into albino SD rats at 50 mg/kg body weight at 0.5 hours before the start of light-damage exposure at 2,700 lux for 6 hours. After the exposure, the rats were moved to their dim cyclic room to recover for a week. Retinal damage/protection was assessed by functional analysis by ERG and structural analysis of histological sections. Dark adapted (12 hour) and Light adapted (for 2 hour) retinas were utilized as controls.

rhodopsin [1] = assay: Rhodopsin regeneration after bleach in rats, IP nitrone; assay type: in vivo, rat; conditions: Rattus norvegicus; rats, 50 mg/kg IP, 2 h room light then 2.5 h dark adaptation
Description: FIG. 10 graphically illustrates the effects of three PBN analogs of rhodopsin regeneration. Rhodopsin content was measured as nmole/retina following the procedure as in Mandal et al. (J Biol. Chem. 2011. 286 (37):32491-501). After injection with PBN derivatives or vehicles (saline), rats were left in room light for 2 hours (light adapted or LA) and then moved to dark. At 2.5 hours dark adaptation (DA), retinas were harvested. DA-Control, Dark adapted (12 h) control retina without any treatment to show normal rhodopsin content.
Measurement of rhodopsin regeneration—To measure the effect of PBN on the rate of rhodopsin regeneration, dark-adapted rats were injected intraperitoneally with PBN (50 mg/kg) or PBS 0.5 hour prior to a 2 hour bleach in room light (˜400 lux). Immediately following the bleach (time=0 minutes), a group of PBN- and vehicle-treated rats were killed, and retinas were removed and snap frozen. The remaining rats were dark-adapted, and retinas were collected under dim red light at 45, 90, and 180 minutes after the bleach.
Rhodopsin measurements were performed as described previously (2,36) with slight modification. Briefly, under dim red light, each retina was homogenized in 450 μl of buffer containing 10 mM Tris-HCl (pH 7.4), 150 mM NaCl, 1 mM EDTA, 2% (w/v) octylglucoside, and 50 mM hydroxylamine. Homogenates were centrifuged at 16,000 g, and soluble lysates were scanned from 270-800 nm in a spectrophotometer (Ultrospec 3000 UV/Vis Spectrophotometer, GE Healthcare, Piscataway, N.J.). Samples were then bleached under room light for 10 minutes and scanned again. The difference spectra at 500 nm between pre- and post-bleached samples were used to determine rhodopsin content using a molar extinction coefficient of […] (37). The values were normalized to the total lysate volume, and data are presented as rhodopsin content/retina.

rhodopsin [2] = assay: Rhodopsin regeneration after topical eye drops in mice; assay type: in vivo, Balb/c mice; conditions: for % of Rhodopsin recovery: 5% in eye drop at 6, 3 and 0 h before dark adaptation, LA + 1 h DA, DA control = 100; for inhibition of rhodopsin regeneration as eye drop: eye drop formulation, summary of Table 7
Description: Panel A: Application scheme and harvesting of the eye. 3 h group received 2 applications and 6 h group received 3 applications. Panel B: Rhodopsin content was measured as pmole/eye. In 1 h in the dark, untreated eyes (NT-LA 1 h DA, no treatment-light adapted followed by 1 hour dark adaptation) and vehicle-treated eyes recovered 75-80% rhodopsin [dark-adapted (DA) control is 100%], whereas 3 h PBN recovered only 43% and 6 h PBN only 29%. (***P<0.0001 compared to vehicle, n=8; ##p<0.005 between 3 h and 6 h group, n=8).
An eye drop formulation was used with various absorption enhancers for topical application of PBN to mouse eyes. […] One hour dark adaptation followed by light causes 75-80% recovery of bleachable rhodopsin in the Balb/c mice (FIG. 18B, NT-LA 1 h DA). The eye drop without PBN (vehicle) had no effect on rhodopsin regeneration (FIG. 18B, vehicle).
Eye drop formulations were prepared as described in Example 7 and contained 5% or 10% of a PBN derivative. The eye drop formulations were applied to Balb/c mice by the 6 h group application scheme shown in FIG. 18A, in which the eye drops were applied at 6, 3, and 0 h before dark adaptation. The eye drops were applied to completely light-adapted mouse eyes, and the mice were then moved to the dark for 1 h to allow the regeneration of bleachable rhodopsin. One hour dark adaptation followed by light causes […] recovery of bleachable rhodopsin in untreated mice (00, No Treatment). The eye drop without any nitrones (vehicle) had no effect on rhodopsin regeneration (000, vehicle).

[3] = apparent IC50, bovine RPE microsomes, all-trans-[3H] retinol substrate (Table 1), read-out: IC50 Values for the Inhibition of RPE65 Isomerohydrolase Reaction
[4] = in vitro RPE65 isomerohydrolase IC50 values repeated in Table 7, read-out: IC50

T1 sequence (Q28175 whole entry): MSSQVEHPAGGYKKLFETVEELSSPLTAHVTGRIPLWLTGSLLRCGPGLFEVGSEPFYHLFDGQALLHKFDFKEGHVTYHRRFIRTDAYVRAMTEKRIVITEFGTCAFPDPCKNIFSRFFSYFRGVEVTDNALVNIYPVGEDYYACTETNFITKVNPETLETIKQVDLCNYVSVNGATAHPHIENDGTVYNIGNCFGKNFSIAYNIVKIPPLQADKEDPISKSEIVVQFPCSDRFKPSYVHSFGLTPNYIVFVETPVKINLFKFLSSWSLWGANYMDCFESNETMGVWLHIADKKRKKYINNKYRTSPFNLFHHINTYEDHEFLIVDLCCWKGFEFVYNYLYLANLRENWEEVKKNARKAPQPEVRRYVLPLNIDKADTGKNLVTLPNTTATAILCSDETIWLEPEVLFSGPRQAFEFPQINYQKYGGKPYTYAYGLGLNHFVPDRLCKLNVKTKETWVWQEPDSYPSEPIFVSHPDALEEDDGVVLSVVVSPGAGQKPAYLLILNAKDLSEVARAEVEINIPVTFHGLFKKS

| Compound | IC50 (RPE65 isomerohydrolase; [3]) [µM] | IC50 (RPE65 isomerohydrolase; [4]) [µM] | RPE65 inhibition compared with PBN (RPE65 isomerohydrolase) | A-Wave value at 4 cd·sec/m^2 (Rat Retina) | B-Wave value at 4 cd·sec/m^2 (Rat Retina) | A-Wave value at 400 cd·sec/m^2 (Rat Retina) | B-Wave value at 400 cd·sec/m^2 (Rat Retina) | % Protection (A-Wave at 4 cd·sec/m^2) (Rat Retina) [%] | % Protection (A-Wave at 400 cd·sec/m^2) (Rat Retina) [%] | % Protection (B-Wave at 4 cd·sec/m^2) (Rat Retina) [%] | % Protection (B-Wave at 400 cd·sec/m^2) (Rat Retina) [%] | ONL Thickness (μm) Inferior retina (Rat Retina) [μm] | ONL Thickness (μm) Superior retina (Rat Retina) [μm] | protection of retinal function (ERG A- and B-wave) (Rat Retina) | protective effect on retinal photoreceptors compared with PBN (Rat Retina) | % Protection (ONL, Inferior retina) (Rat Retina) [%] | % Protection (ONL, Superior retina) (Rat Retina) [%] | inhibition at 50 mg/kg (rhodopsin [1]) [%] | % of Rhodopsin recovery (rhodopsin [2]) [%] | inhibition of rhodopsin regeneration as eye drop (rhodopsin [2]) |
| --- | --- | --- | --- | --- | --- | --- | --- | --- | --- | --- | --- | --- | --- | --- | --- | --- | --- | --- | --- | --- |
| CC(C)(C)/[N+]([O-])=C/c1ccc(F)cc1 [Compound 2, 4-Fluorophenyl t-butyl nitrone] | 60 | 60 | more effective at inhibiting RPE65 activity than the native PBN molecule | 163.0 | 572.4 | 295.7 | 762.6 | 90.4 | 102.3 | 79.5 | 99.8 | 42.4 ± 1.3 | 42.0 ± 1.4 | protected retinal function significantly | comparable to PBN, and even appears to provide more protection than PBN | 100 | 96.2 | 88 | 81.15 | not effective at inhibiting rhodopsin regeneration |
| CC(C)(C)/[N+]([O-])=C/c1ccc(C(F)(F)F)cc1 [Compound 3, 4-Trifluoromethylphenyl t-butyl nitrone] | 60 | 60 | more effective at inhibiting RPE65 activity than the native PBN molecule | 148.1 | 478.7 | 234.7 | 560.0 | 80.4 | 79.7 | 64.9 | 71.2 | 39.8 ± 1.1 | 36.8 ± 1.4 | protected retinal function significantly | comparable to that of PBN | 91.6 | 83.1 | 82 | 52.80 | more effective in inhibiting rhodopsin regeneration than PBN |
| COc1ccc(/C=[N+](\[O-])C(C)(C)C)cc1 [Compound 5, 4-Methoxyphenyl t-butyl nitrone] | 500 | 500 |  |  |  |  |  |  |  |  |  |  |  |  |  |  |  |  | 79.10 |  |
| CCOc1ccc(/C=[N+](\[O-])C(C)(C)C)cc1 [Compound 6, 4-Ethoxyphenyl t-butyl nitrone] | > 2000 | > 2000 |  |  |  |  |  |  |  |  |  |  |  |  |  |  |  |  | 81.99 |  |
| CC(C)(C)/[N+]([O-])=C/c1ccccc1F [Compound 7, 2-Fluorophenyl t-butyl nitrone] | 1300 | 1300 |  |  |  |  |  |  |  |  |  |  |  |  |  |  |  |  |  |  |
| CC(C)(C)/[N+]([O-])=C/c1cccc(F)c1 [Compound 8, 3-Fluorophenyl t-butyl nitrone] | 280 | 280 |  |  |  |  |  |  |  |  |  |  |  |  |  |  |  |  |  |  |
| CC(C)(C)/[N+]([O-])=C/c1cc(F)cc(F)c1 [Compound 9, 3,5-Difluorophenyl t-butyl nitrone] | 500 | 500 |  |  |  |  |  |  |  |  |  |  |  |  |  |  |  |  |  |  |
| CC(C)(C)/[N+]([O-])=C/c1ccc(F)c(F)c1 [Compound 10, 3,4-Difluorophenyl t-butyl nitrone] | 50 | 50 | more effective at inhibiting RPE65 activity than the native PBN molecule |  |  |  |  |  |  |  |  |  |  |  |  |  |  |  | 39.31 | more effective in inhibiting rhodopsin regeneration than PBN |
